Laboratory results published in patent US8481496B2, “Gold (III) complexes with oligopeptides functionalized with sulfur donors and use thereof as antitumor agents” (Universita' Degli Studi di Padova, priority 2009, dated 2013).

Columns and labels:
[1] = test system: human prostate carcinoma PC3 cells; assay: In vitro cytotoxicity, BrdU cell proliferation ELISA; type: cell-based; details: 72 h exposure, 0.05-10 μM
Method: Human prostate carcinoma PC3 cells (established from bone marrow metastasis and unresponsive to androgen treatment) were cultured in IMDM (Iscove's Modified Dulbecco's medium) supplemented with 10% heat-inactivated fetal bovine serum (FBS), penicillin (2 mg mL^−1), streptomycin (2 mg mL^−1), L-glutamine (0.1% w/v) at 37° C. in 5% CO2 and moisture-enriched atmosphere.
Before use, [Au^IIIX2(pdtc)] complexes (AUD6, AUD7, AUD8, AUD9) and cisplatin were dissolved in methyl sulfoxide (DMSO) just before the experiments. Calculated amounts of drug solutions were then added to the proper medium to a final concentration of 0.5% (v/v) DMSO which had no discernible effect on cell death.
For the cytotoxicity assay, cells (2.5×10^3 cells mL^−1) were seeded in 96-well flat-bottomed microplates in IMDM supplemented with 10% heat-inactivated FBS and incubated at 37° C. in a 5% CO2 atmosphere. The medium was then removed and replaced with a fresh one containing the compounds to be studied (previously dissolved in DMSO) at increasing concentrations (0.05-10 μM), thus exposing cells to the investigated compounds for 72 h. Triplicate cultures were established for each treatment. Cell viability was determined by a cell proliferation ELISA 5-bromo-2′-deoxyuridine colorimetric kit, according to the manufacturer's protocol. […] For comparison purposes, the cytotoxicity of cisplatin was evaluated under the same experimental conditions.

[2] = test system: estrogen receptor α-negative human breast cancer MDA-MB-231 cells; assay: Growth inhibition, MTT assay; type: cell-based; details: 1-50 μM, 22 h, FIG. 2
Method: The growth-inhibitory effect of AUD6 and AUD8 on estrogen receptor α-negative human breast cancer MDA-MB-231 cells has been also evaluated. Cells were grown in RPMI 1640 medium supplemented with 10% heat-inactivated fetal bovine serum, penicillin (100 units mL^−1), streptomycin (100 μg mL^−1), L-glutamine (0.1% w/v) at 37° C. in 5% CO2 and moisture-enriched atmosphere. For the cytotoxicity assay, cells were seeded in 96-well microplates in RPMI 1640 medium and grown to 70% to 80% confluency followed by addition of the compounds to be studied (previously dissolved in DMSO) at increasing concentrations (1-50 μM) and incubated at 37° C. in a 5% CO2 atmosphere, thus exposing cells to the investigated compounds for 22 h. Triplicate cultures were established for each treatment. Cell respiration, as an indicator of cell viability, was determined by the mitochondrial-dependent reduction of MTT (3-(4,5-dimethylthiazol-2-yl)-2,5-diphenyltetrazolium bromide) to formazan as previously described [V. Milacic, D. Chen, L. Ronconi, K. R. Landis-Piwowar, D. Fregona, Q. P. Dou, Cancer Res. 2006, 66, 10478-10486]. Cell viability was calculated by dividing the average absorbance of the cells treated with the test compounds by that of the control, the standard deviation being estimated from the average of three trials.

[3] = test system: purified rabbit 20S proteasome; assay: Inhibition of proteasomal chymotrypsin-like activity, purified proteasome; type: biochemical; details: for potency relative to previously investigated Au(III)-dithiocarbamato analogues: purified rabbit 20S proteasome; for inhibition of proteasomal chymotrypsin-like activity: purified rabbit 20S proteasome (35 ng), 0.1-25 μM, 2 h, FIG. 3A
Method: (§1) To investigate whether these compounds could also have the proteasome as a biological target, purified rabbit 20S proteasome (35 ng) or MDA-MB-231 whole cell extract (10 μg) were incubated with 20 μM of the substrate (for proteasomal chymotryptic (CT) activity) in 100 μL assay buffer (20 mmol L^−1 Tris-HCl (pH 7.5) in the presence of the compounds to be studied (previously dissolved in DMSO) at increasing concentrations (0.1-25 μM) or equivalent volume of neat DMSO as control. After 2 h incubation at 37° C., inhibition of each proteasomal chymotryptic activity was measured as previously described [V. Milacic et al. 2006, ref. cit.].

[4] = molecular target: T1, MDA-MB-231 whole cell extract (Homo sapiens, UniProt P28074); assay: Inhibition of proteasomal chymotrypsin-like activity, whole cell extract; type: biochemical; details: for potency relative to previously investigated Au(III)-dithiocarbamato analogues: MDA-MB-231 whole cell extract; for inhibition of proteasomal chymotrypsin-like activity: MDA-MB-231 whole cell extract (10 μg), 0.1-25 μM, 2 h, FIG. 3B
T1 construct: MDA-MB-231 whole cell extract (10 μg); endogenous in cells; host or cells: MDA-MB-231 whole cell extract
T1 sequence (P28074 60-263): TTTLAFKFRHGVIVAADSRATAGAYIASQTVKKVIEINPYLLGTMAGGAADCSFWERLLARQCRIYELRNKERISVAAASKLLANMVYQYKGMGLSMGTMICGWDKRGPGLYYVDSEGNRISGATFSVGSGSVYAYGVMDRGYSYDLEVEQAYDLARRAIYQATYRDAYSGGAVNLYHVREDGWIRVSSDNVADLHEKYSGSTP
Method: as §1

[5] = test system: human breast cancer (MDA-MB-231) xenografts; assay: Human breast tumor xenograft experiments; type: in vivo; details: 1.0 mg kg−1 s.c. daily, after 13 days, female athymic nude mice
Method: Estrogen receptor α-negative human breast cancer MDA-MB-231 cells were grown in RPMI 1640 medium supplemented with 10% fetal bovine serum, penicillin (100 units mL^−1), and streptomycin (100 μg mL^−1) at 37° C. in 5% CO2 and moisture-enriched atmosphere.
Five week-old female athymic nude mice were purchased from Taconic Research Animal Services (Hudson) and housed according to protocols approved by the Institutional Laboratory Animal Care and Use Committee of Wayne State University. MDA-MB-231 cells (5.0×10^6 cells mL^−1 suspended in 0.1 mL of serum-free RPMI 1640 medium) were inoculated subcutaneously (s.c.) in right flank of each mouse (four mice per group). When tumors reached the size of ca. 120 mm^3, mice were randomly grouped and treated daily with s.c. injection of either 1.0 mg kg^−1 of AUD6 or AUD8, or vehicle [10% DMSO, 20% Cremophore/ethanol (3:1) and 70% PBS]. Tumor size was measured every other day using calipers and their volumes were calculated according to the formula width^2×length/2. Mice have being treated for 13 days. Initial tumor growth inhibition was analyzed.

[6] = test system: proteasome target proteins, such as Bax and p27; assay: Accumulation of proteasome target proteins; type: cell-based; details: preliminary
[7] = test system: cisplatin-sensitive (2008) and -resistant (C13*) human ovarian carcinoma cells; details: cited from earlier work
MDA-MB-231 tumor = details: MDA-MB-231 tumor-bearing nude mice; cited from earlier work

## [Au^IIICl2((t-Bu)O-Aib-Sar-dtc)] [AUD9]
[1]
  IC50: 750 ± 60 nM

## [Au^IIICl2((t-Bu)O-Gly-Sar-dtc)] [AUD7]
[1]
  IC50: 1000 ± 100 nM

## [Au^IIIBr2((t-Bu)O-Aib-Sar-dtc)] [AUD8]
[2]
  growth-inhibitory effect on MDA-MB-231 cells: slightly higher activity
[3]
  potency relative to previously investigated Au(III)-dithiocarbamato analogues: two-fold more potent
  inhibition of proteasomal chymotrypsin-like activity: concentration-dependent
[4]
  potency relative to previously investigated Au(III)-dithiocarbamato analogues: two-fold more potent
  inhibition of proteasomal chymotrypsin-like activity: concentration-dependent
[5]
  tumor growth inhibition: > 90%
[6]
  accumulation of proteasome target proteins (Bax, p27): induce accumulation of proteasome target proteins
[1]
  IC50: 550 ± 50 nM

## CCOC(=O)CN(C)C(=S)[S][Pt][Cl].c1ccncc1 [[Pt^IICl(ESDT)(py)]]
[7]; 2008 and C13* cells
  inhibition of tumor cell growth compared with cisplatin: greater inhibition of tumor cell growth than cisplatin
[7]; cisplatin-resistant C13* cells
  cross-resistance in C13* cells: complete lack of cross-resistance

## CN(C)C1=[S+][Au-]([Br])([Br])[S]1 [[Au^IIIBr2(DMDT)]]
MDA-MB-231 tumor
  inhibition of tumor growth: significant inhibition of tumor growth

## N.N.[Cl][Pt][Cl] [cisplatin, cis-dichlorodiamminoplatinum(II), reference compound]
[1]
  IC50: 2600 ± 200 nM

## [Au^IIIBr2((t-Bu)O-Gly-Sar-dtc)] [AUD6]
[3]
  potency relative to previously investigated Au(III)-dithiocarbamato analogues: two-fold more potent
  inhibition of proteasomal chymotrypsin-like activity: concentration-dependent
[4]
  potency relative to previously investigated Au(III)-dithiocarbamato analogues: two-fold more potent
  inhibition of proteasomal chymotrypsin-like activity: concentration-dependent
[5]
  tumor growth inhibition: ca. 33%
[6]
  accumulation of proteasome target proteins (Bax, p27): induce accumulation of proteasome target proteins
[1]
  IC50: 850 ± 70 nM
